In brackets after ≈: the same amount, converted by molar mass.
How the values were obtained:
hERG potassium channel = biological target: T1, hERG potassium channel (Homo sapiens, UniProt Q12809); test: hERG ion channel inhibition (Fluxor potassium assay, CHO cells); assay type: cell-based; details: blockade of the K+ channel current at 10 μM
T1 construct: expressed in transfected cells; host or cells: CHO cell line
Procedure: CYP1A2 and CYP2C19, 7- methoxy- 4(trifluoromethyl)coumarin for CYP2C9, 3-[2-(N,N- diethyl -N-methylammonium)ethyl]-7- methoxy- 4- methylcoumarin for CYP2D6, and 7- benzyloxytrifluoromethylcoumarin for CYP3A4), to give the final assay concentrations in a reaction volume of 200 µL. Reactions were terminated after specific time for each cytochrome by addition of STOP solution (0.5 M 80:20 ACN/TrisHCl). […]
hERG ion channel inhibition. The assay was carried out using a CHO cell line transfected with the hERG potassium channel. C ells were seeded (2500 cells/well) 72 h before the assay on a 384-well black plate (Greiner 781091). Cell s were maintained at 37 °C in a 5% CO2 atmosphere for 24 h and at 30 °C in a 5% CO 2 atmosphere for 48 h. hERG activity was measured by using the FluxorTM Potassium Ion Chanel Assay Kit (Thermo Fisher F10016). Medium was replaced for 20 µL of loading buffer and cells were incubated for 60 min at 25 °C, protected from direct light. After incubation, l oading buffer was replaced for a ssay buffer and compounds were incubated for 30 min at 25 °C. After this time, 5 µL of stimulus buffer was added to each well and fluorescence was read (λ ex = 490 nm, λem = 525 nm) every second after the establishment of a baseline line using an imaging plate reader system (FDSS7000EX, Hamamatsu®). The fluorescent signal was […]

mouse D1R = biological target: T2, mouse D1R (Mus musculus, UniProt Q61616); test: potentiator-mode cAMP assay in mouse CAD neuroblastoma cell line; assay type: cell-based; details: mouse CAD neuroblastoma cells
T2 construct: human SK-N-MC and mouse CAD neuroblastoma cell lines; endogenous in cells; host or cells: mouse CAD neuroblastoma cell line
T2 sequence (Q61616 whole entry): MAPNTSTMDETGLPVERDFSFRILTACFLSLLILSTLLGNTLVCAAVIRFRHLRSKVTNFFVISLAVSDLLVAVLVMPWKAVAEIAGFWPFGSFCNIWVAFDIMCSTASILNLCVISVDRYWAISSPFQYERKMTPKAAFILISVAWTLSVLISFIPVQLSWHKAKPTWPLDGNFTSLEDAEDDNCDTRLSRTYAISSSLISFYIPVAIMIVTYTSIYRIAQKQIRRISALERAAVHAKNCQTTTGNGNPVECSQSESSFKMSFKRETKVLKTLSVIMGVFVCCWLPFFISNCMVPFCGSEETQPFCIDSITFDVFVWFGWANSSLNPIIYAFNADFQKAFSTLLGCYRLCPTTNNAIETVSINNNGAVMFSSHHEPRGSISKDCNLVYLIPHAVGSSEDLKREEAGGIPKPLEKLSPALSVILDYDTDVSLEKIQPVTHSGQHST
Procedure: In order to ascertain if this allosteric potentiation was due to a modulation on DA affinity, radioligand binding assays in the presence of DA IC50 (4 μM) were carried out.
Compound 26 was tested in the potentiator-mode cAMP assay at different fixed concentrations (1, 5, and 10 μM). […] Therefore, it should have negligible direct activating effects on the human D1R in the absence of the endogenous ligand.
Figure 3 (A) Concentration–response curves in human D1R for cAMP production of DA alone (black) and in the presence of different concentrations of compound 26. (B) Concentration–response curves in human D1R of DA (black), 10 μM 26 for 10 min (red), and 10 μM 26 for 10 min then washing with assay buffer (blue). (C) Concentration–response curves in mouse D1R of DA alone (black) and in the presence of 10 μM 26 (red). (D) Concentration–response curve in human D1R of compound 26 in the presence of DA EC70 concentration. (E) Concentration–response curves in human D1R of DA (black) and compound 26 (red). (F) Concentration–response curves in human D1R of DA (red), after preincubation for 1 h with 10 μM DA (black), with 10 μM 26 (green), and with both 10 μM DA and 10 μM 26 (blue).

[1] = solubility by nephelometry; assay type: physicochemical; details: PBS buffer with 1% DMSO; maximum solubility by nephelometry
Procedure: Prior to use, the pre-coated PAMPA plate system was warmed to rt for 30 min and 300 μL of 200 μM solution of tested compound in 2% DMSO in PBS were added to the wells in the receiver (donor) plate.
Then, 200 μL of PBS were added to the wells in the filter (acceptor) plate. The filter plate was placed on the receiver plate by slowly lowering the pre-coated PAMPA plate until it sits on the receiver plate. The assembly was incubated at rt for 5 h, and then buffer samples were collected carefully from each plate. […]
CD(t) = compound concentration (μM) in donor well at time t, and Ceq = […]
Solubility. […] The solutions were i ncubated for 2 h at 37 °C and read in a NEPHELOstar Plus instrument (BMG LABTECH). […]
Fluorescence per well was measured using a fluorescence plate reader (Tecan Infinite M1000 pro) and percentage of inhibition was calculated. hERG ion channel inhibition. […] Cell s were maintained at 37 °C in a 5% CO2 atmosphere for 24 h and at 30 °C in a 5% CO 2 atmosphere for 48 h. hERG activity was measured by using the FluxorTM Potassium Ion Chanel Assay Kit (Thermo Fisher F10016). […] After this time, 5 µL of stimulus buffer was added to each well and fluorescence was read (λ ex = 490 nm, λem = 525 nm) every second after the establishment of a baseline line using an imaging plate reader system (FDSS7000EX, Hamamatsu®). […]

T1 sequence (Q12809 whole entry): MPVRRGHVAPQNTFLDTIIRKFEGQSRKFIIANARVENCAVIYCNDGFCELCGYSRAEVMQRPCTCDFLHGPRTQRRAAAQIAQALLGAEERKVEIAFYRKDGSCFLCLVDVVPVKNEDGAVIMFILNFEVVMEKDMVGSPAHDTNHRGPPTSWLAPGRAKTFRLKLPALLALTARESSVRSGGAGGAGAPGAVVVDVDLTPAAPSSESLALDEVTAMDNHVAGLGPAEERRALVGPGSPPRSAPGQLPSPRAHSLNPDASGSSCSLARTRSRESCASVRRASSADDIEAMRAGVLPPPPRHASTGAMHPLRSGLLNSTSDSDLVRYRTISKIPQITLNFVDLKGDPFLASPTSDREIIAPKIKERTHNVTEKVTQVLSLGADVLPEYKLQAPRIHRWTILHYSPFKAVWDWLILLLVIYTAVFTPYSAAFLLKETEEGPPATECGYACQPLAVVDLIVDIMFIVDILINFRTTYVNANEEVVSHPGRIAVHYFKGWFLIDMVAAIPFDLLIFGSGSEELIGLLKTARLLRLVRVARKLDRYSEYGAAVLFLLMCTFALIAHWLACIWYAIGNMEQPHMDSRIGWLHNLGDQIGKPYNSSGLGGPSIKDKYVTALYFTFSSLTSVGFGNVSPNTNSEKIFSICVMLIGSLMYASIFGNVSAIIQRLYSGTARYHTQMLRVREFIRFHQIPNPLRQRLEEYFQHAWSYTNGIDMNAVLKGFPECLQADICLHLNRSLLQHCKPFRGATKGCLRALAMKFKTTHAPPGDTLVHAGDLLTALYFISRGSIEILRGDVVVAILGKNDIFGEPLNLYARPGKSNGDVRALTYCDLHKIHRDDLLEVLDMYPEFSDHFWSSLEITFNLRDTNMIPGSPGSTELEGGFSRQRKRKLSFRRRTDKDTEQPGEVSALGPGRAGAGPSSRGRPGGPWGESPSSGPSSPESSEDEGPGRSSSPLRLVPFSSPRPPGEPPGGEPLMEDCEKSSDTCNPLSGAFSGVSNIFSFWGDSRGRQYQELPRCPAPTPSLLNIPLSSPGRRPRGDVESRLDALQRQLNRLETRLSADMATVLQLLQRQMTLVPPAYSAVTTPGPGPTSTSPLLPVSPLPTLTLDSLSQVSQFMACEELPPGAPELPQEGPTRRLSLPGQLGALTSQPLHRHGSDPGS

Row | Compound | hERG inhibition (%) (hERG potassium channel) | potentiation of DA effect in mouse D1R (mouse D1R) | solubility at 2 h [1] [µM]
1 | CS(=N)(=O)c1ccc(-c2ccccc2OCF)cc1 (stereo not drawn) [Compound 26, 2-(Fluoromethoxy)-4′-(S-methanesulfonimidoyl)-1,1′-biphenyl] | 21 | PAM behavior was also observed | 50 (≈ 14 µg/mL)
2 | O=Cc1ccc(-c2ccccc2OCF)cc1 [Compound 3, 2′-(Fluoromethoxy)[1,1′-biphenyl]-4-carbaldehyde] | 11 ± 2 | concentration-dependent potentiation of DA effect | 15 (≈ 3.45 µg/mL)

From PMC9511493, “2-(Fluoromethoxy)-4′-(S-methanesulfonimidoyl)-1,1′-biphenyl (UCM-1306), an Orally Bioavailable Positive Allosteric Modulator of the Human Dopamine D1 Receptor for Parkinson’s Disease” (Journal of Medicinal Chemistry, 2022)
